Results: patent publication US20230278984A1 (Global Blood Therapeutics, Inc., priority 2020, published 2023)

Target: T1, Human pyruvate kinase R (PKR) (Homo sapiens, UniProt P30613)
T1 construct: Human pyruvate kinase R (PKR), residues 14-574; 6x-His (N, cleaved yes); 8x-Arg (N, cleaved yes); SUMO (N, cleaved yes); host or cells: E. coli
Experiment: Biochemical assay for activation of pyruvate kinase R (Kinase-Glo luminescence measurement of ATP generation)
Conditions: for AC50: PKR biochemical assay, 0.1 nM PKR, 0.3 mM ADP, 2 mM FBP, 0.1 mM PEP; for Emax: maximal activation level relative to the activation level achieved by the literature compound AG-348 @ 10 μM
Procedure, shortened: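 Recombinant human PKR (residues 14-574), E. coli-expressed with His-Arg-SUMO tag removed, purified by Ni-NTA, anion exchange and size exclusion. Activation measured as ATP generation via Kinase-Glo luminescence.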

T1 sequence (P30613 14-574): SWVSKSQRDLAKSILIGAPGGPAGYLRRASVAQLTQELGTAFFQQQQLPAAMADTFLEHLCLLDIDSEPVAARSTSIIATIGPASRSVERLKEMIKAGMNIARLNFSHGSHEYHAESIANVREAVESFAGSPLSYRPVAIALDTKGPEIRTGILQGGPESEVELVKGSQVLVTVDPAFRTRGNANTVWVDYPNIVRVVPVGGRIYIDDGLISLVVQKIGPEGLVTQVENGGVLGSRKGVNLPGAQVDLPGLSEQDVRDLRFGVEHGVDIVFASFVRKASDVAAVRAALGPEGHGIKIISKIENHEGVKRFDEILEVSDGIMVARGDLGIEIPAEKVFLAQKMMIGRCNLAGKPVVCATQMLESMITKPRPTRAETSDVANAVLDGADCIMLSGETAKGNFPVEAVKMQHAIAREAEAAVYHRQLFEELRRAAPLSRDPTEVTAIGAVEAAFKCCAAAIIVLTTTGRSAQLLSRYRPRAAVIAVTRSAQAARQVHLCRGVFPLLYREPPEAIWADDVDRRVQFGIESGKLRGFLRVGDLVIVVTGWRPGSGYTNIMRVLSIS

SMILES	AC50 [nM]	Emax [%]
Cc1nc(CNC(=O)NCc2ncnn2-c2ccc(Cl)c(F)c2)n(-c2ccc3cccnc3c2)n1 [Compound 85, 1-{[1-(4-chloro-3-fluorophenyl)-1H-1,2,4-triazol-5-yl]methyl}-3-{[3-methyl-1-(quinolin-7-yl)-1H-1,2,4-triazol-5-yl]methyl}urea]	36	67
O=C(NCc1ncnn1-c1ccc2cccnc2c1)NCc1nc(CF)nn1-c1ccc(Cl)c(F)c1 [Compound 104, 1-{[1-(4-chloro-3-fluorophenyl)-3-(fluoromethyl)-1H-1,2,4-triazol-5-yl]methyl}-3-{[1-(quinolin-7-yl)-1H-1,2,4-triazol-5-yl]methyl}urea]	36	80
Cc1nc(CNC(=O)NCc2nc(C)nn2-c2ccc3cccnc3c2)n(-c2ccc(Cl)c(F)c2)n1 [Compound 87, 1-{[1-(4-chloro-3-fluorophenyl)-3-methyl-1H-1,2,4-triazol-5-yl]methyl}-3-{[3-methyl-1-(quinolin-7-yl)-1H-1,2,4-triazol-5-yl]methyl}urea]	83	87
CCN(Cc1ncnn1-c1ccc(Cl)c(F)c1)C(=O)NCc1ncnn1-c1ccc(O)nc1 [Compound 121, 3-{[1-(4-chloro-3-fluorophenyl)-1H-1,2,4-triazol-5-yl]methyl}-3-ethyl-1-{[1-(6-hydroxypyridin-3-yl)-1H-1,2,4-triazol-5-yl]methyl}urea]	7800	47
Cc1nc(CNC(=O)NCc2ncnn2-c2cc3ccccc3cn2)n(-c2ccc(Cl)c(F)c2)n1 [Compound 125, 1-{[1-(4-chloro-3-fluorophenyl)-3-methyl-1H-1,2,4-triazol-5-yl]methyl}-3-{[1-(isoquinolin-3-yl)-1H-1,2,4-triazol-5-yl]methyl}urea]	3800	81
Cc1nc(CNC(=O)NCc2nc(C)nn2-c2ccc(Cl)c(F)c2)n(-c2ccc(Cl)c(F)c2)n1 [Compound 77, 1,3-bis({[1-(4-chloro-3-fluorophenyl)-3-methyl-1H-1,2,4-triazol-5-yl]methyl})urea]	51	93
COc1ccc(-n2nnnc2CNC(=O)NCc2nnnn2-c2ccc(OC)cc2)cc1 [Compound 69, 1,3-bis({[1-(4-methoxyphenyl)-1H-1,2,3,4-tetrazol-5-yl]methyl})urea]	540	92
COC(=O)c1cc(-n2nc(C)nc2CNC(=O)NCc2nc(C)nn2-c2ccc(Cl)c(F)c2)ccc1Cl [Compound 95, methyl 2-chloro-5-(5-{[({[1-(4-chloro-3-fluorophenyl)-3-methyl-1H-1,2,4-triazol-5-yl]methyl}carbamoyl)amino]methyl}-3-methyl-1H-1,2,4-triazol-1-yl)benzoate]	68	87
CC1(Cn2ncnc2CNC(=O)NCc2ncnn2-c2ccc(Cl)c(F)c2)CCOCC1 [Compound 11, 3-{[1-(4-chloro-3-fluorophenyl)-1H-1,2,4-triazol-5-yl]methyl}-1-({1-[(4-methyloxan-4-yl)methyl]-1H-1,2,4-triazol-5-yl}methyl)urea]	88	49
Cc1ccc(-n2ncnc2CN(C)C(=O)NCc2nc(C)nn2-c2ccc(Cl)c(F)c2)cn1 [Compound 79, 3-{[1-(4-chloro-3-fluorophenyl)-3-methyl-1H-1,2,4-triazol-5-yl]methyl}-1-methyl-1-{[1-(6-methylpyridin-3-yl)-1H-1,2,4-triazol-5-yl]methyl}urea]	160	53
COC(=O)c1cc(-n2ncnc2CNC(=O)NCc2nc(C)nn2-c2ccc(Cl)c(F)c2)ccc1Cl [Compound 50, methyl 2-chloro-5-(5-{[({[1-(4-chloro-3-fluorophenyl)-3-methyl-1H-1,2,4-triazol-5-yl]methyl}carbamoyl)amino]methyl}-1H-1,2,4-triazol-1-yl)benzoate]	32	64
Cc1nc(CNC(=O)NCc2ncnn2Cc2ccc(F)cc2)n(-c2ccc(Cl)c(F)c2)n1 [Compound 20, 3-{[1-(4-chloro-3-fluorophenyl)-3-methyl-1H-1,2,4-triazol-5-yl]methyl}-1-({1-[(4-fluorophenyl)methyl]-1H-1,2,4-triazol-5-yl}methyl)urea]	51	97
CN(Cc1nnnn1-c1ccc(Cl)c(F)c1)C(=O)NCc1nnnn1-c1ccc(Cl)c(F)c1 [Compound 26, 1,3-bis({[1-(4-chloro-3-fluorophenyl)-1H-1,2,3,4-tetrazol-5-yl]methyl})-1-methylurea]	73	93
Cc1ccc(-n2nnnc2CNC(=O)NCc2nnnn2-c2ccc(C)cc2F)c(F)c1 [Compound 114, 1,3-bis({[1-(2-fluoro-4-methylphenyl)-1H-1,2,3,4-tetrazol-5-yl]methyl})urea]	670	61
CCN(Cc1ncnn1-c1ccc(Cl)c(F)c1)C(=O)NCc1ncnn1-c1ccc(Cl)c(F)c1 [Compound 30, 1,3-bis({[1-(4-chloro-3-fluorophenyl)-1H-1,2,4-triazol-5-yl]methyl})-1-ethylurea]	18	48
CN(Cc1ncnn1-c1ccc(Cl)c(F)c1)C(=O)NCc1nnnn1-c1ccc(Cl)c(F)c1 [Compound 33, 1-{[1-(4-chloro-3-fluorophenyl)-1H-1,2,3,4-tetrazol-5-yl]methyl}-3-{[1-(4-chloro-3-fluorophenyl)-1H-1,2,4-triazol-5-yl]methyl}-3-methylurea]	9	67
Cc1nc(CNC(=O)NCc2nc(C)nn2-c2ccc(Cl)cc2)n(-c2ccc(Cl)cc2)n1 [Compound 73, 1,3-bis({[1-(4-chlorophenyl)-3-methyl-1H-1,2,4-triazol-5-yl]methyl})urea]	190	107
Cn1ncc2cc(-n3ncnc3CNC(=O)NCc3ncnn3-c3ccc(Cl)c(F)c3)ccc21 [Compound 52, 1-{[1-(4-chloro-3-fluorophenyl)-1H-1,2,4-triazol-5-yl]methyl}-3-{[1-(1-methyl-1H-indazol-5-yl)-1H-1,2,4-triazol-5-yl]methyl}urea]	24	37
Cc1nc(CNC(=O)NCC2=NC3(CC3)C(=O)N2c2ccc3cccnc3c2)n(-c2ccc(Cl)c(F)c2)n1 [Compound 111, 1-{[1-(4-chloro-3-fluorophenyl)-3-methyl-1H-1,2,4-triazol-5-yl]methyl}-3-{[7-oxo-6-(quinolin-7-yl)-4,6-diazaspiro[2.4]hept-4-en-5-yl]methyl}urea]	140	105
O=C(NCc1ncnn1-c1ccc(Cl)c(F)c1)N(CCO)Cc1nnnn1-c1ccc(Cl)c(F)c1 [Compound 34, 1-{[1-(4-chloro-3-fluorophenyl)-1H-1,2,3,4-tetrazol-5-yl]methyl}-3-{[1-(4-chloro-3-fluorophenyl)-1H-1,2,4-triazol-5-yl]methyl}-1-(2-hydroxyethyl)urea]	830	89
CCc1nc(CNC(=O)NCc2ncnn2-c2ccc3cccnc3c2)n(-c2ccc(Cl)c(F)c2)n1 [Compound 45, 1-{[1-(4-chloro-3-fluorophenyl)-3-ethyl-1H-1,2,4-triazol-5-yl]methyl}-3-{[1-(quinolin-7-yl)-1H-1,2,4-triazol-5-yl]methyl}urea]	110	80
